# Experimental data taken from PubChem BioAssay AID1259338 (Broad Institute, 2017).
# Activity calls are given as the source filed them.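 Rule for the calls: active = compounds lowering the signal with a fitted AC50 at or below a set concentration limit; inconclusive = flat curve with 30 to 70% inhibition, or a poor fit; inactive = the rest.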
# Molecular target: Caspase recruitment domain-containing protein 9 (Homo sapiens) + E3 ubiquitin-protein ligase TRIM62 (Homo sapiens) (UniProt Q9H257+Q9BVG3)
# Assay: CARD9/TRIM62 protein interaction inhibitors – cell lysate, HEK293FT lysates, Luminex bead readout, dose response (AID 1259338); for activity change, negative = inhibition: reference of the scale not given here
# Conditions: Luminex bead PPI, MFI
# Sequence of Caspase recruitment domain-containing protein 9 (Homo sapiens) + E3 ubiquitin-protein ligase TRIM62 (Homo sapiens) (Q9BVG3 whole entry, looked up, the tested form may be a part): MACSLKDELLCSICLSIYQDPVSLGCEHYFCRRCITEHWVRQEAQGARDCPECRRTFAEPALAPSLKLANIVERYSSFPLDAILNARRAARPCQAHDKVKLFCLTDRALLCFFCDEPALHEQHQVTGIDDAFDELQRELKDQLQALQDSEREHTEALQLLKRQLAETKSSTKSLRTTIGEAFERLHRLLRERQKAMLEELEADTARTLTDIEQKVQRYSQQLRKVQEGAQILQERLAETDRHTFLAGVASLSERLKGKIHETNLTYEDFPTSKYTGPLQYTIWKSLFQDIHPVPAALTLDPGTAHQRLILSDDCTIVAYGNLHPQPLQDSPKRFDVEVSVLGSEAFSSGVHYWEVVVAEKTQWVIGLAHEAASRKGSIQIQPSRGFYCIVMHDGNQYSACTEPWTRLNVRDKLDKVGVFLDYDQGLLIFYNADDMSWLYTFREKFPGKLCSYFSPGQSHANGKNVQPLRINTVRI
# Sequence of Caspase recruitment domain-containing protein 9 (Homo sapiens) + E3 ubiquitin-protein ligase TRIM62 (Homo sapiens) (Q9H257 whole entry, looked up, the tested form may be a part): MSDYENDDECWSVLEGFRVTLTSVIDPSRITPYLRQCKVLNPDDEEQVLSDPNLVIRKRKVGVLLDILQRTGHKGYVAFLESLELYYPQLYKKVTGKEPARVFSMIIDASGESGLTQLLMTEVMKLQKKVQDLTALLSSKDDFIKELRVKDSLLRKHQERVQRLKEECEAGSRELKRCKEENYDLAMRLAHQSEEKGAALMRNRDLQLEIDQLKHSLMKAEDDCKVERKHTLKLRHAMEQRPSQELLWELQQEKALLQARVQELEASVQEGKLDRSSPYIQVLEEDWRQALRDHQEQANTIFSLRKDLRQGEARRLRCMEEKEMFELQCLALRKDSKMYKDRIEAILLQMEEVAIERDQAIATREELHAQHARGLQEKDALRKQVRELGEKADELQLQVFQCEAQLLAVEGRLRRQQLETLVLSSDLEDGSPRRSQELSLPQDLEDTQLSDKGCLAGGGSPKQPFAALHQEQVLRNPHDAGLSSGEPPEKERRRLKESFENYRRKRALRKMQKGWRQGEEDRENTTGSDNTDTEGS
Structure (SMILES),"activity change, negative = inhibition (at 80 µM (top of the series))",AC50,further results
COc1ccc(NC(=O)c2nc(Nc3ccccc3)c3ccccc3n2)cc1,–,–,"activity change, negative = inhibition (at 38 µM (top of the series)): inactive"
Cc1c(/C=C/c2nc3ccccc3c(=O)n2-c2ccccn2)c2ccccc2n1C,inactive,–,–
COc1cccc(NC(=O)CN(C)C(=O)c2cc3c(s2)CCC3)c1,–,50.6 µM,–
O=[N+]([O-])c1c(NCCCO)cc(SCc2ccco2)c2nonc12,inactive,–,–
CC(=O)c1sc2nc(-c3ccco3)ccc2c1N,inactive,–,–
N#CNc1nc(O)cc(=O)[nH]1,inactive,–,–
CC1(C)Cc2c(c(N3CCOCC3)nc3sc(C(=O)NCc4ccco4)c(N)c23)CO1,inactive,–,–
Cc1ccccc1C(=O)Nc1cnc(N2CCC(C(N)=O)(N3CCCCC3)CC2)c(C(=O)O)c1,–,7.55 µM,–
Cc1cccc2nc(CSCc3ccco3)cn12,–,> 160 µM (inactive),–
Cn1nnnc1SCCNCc1ccc(-c2cccc(C(F)(F)F)c2)o1,inactive,–,–
Cc1c(C(=O)OCC2CCCO2)[nH]c2c1C(=O)CC(c1ccco1)C2 (stereo unspecified),–,> 160 µM (inactive),–
O=C(COC(=O)c1cc(-c2ccco2)nc2ccccc12)NCc1ccccc1,inactive,–,–
O=C(O)c1cc(-c2ccco2)nc2ccccc12,inactive,–,–
Cc1[nH]c2ccc(Cl)cc2c(=O)c1CN1CCCC1,inactive,–,–
Cc1ccc2cc(CN(Cc3ccco3)S(C)(=O)=O)c(=O)[nH]c2c1,–,> 160 µM (inactive),–
O=C1c2ccccc2S(=O)(=O)N1Cc1cccc(S(=O)(=O)N2CCOCC2)c1,inactive,–,–
O=C(Nc1ccc2oc(-c3ccncc3)nc2c1)c1ccc2c(c1)OCO2,–,41.8 µM,–
Fc1ccc(CSc2nnc(-c3cccnc3)n2Cc2ccco2)cc1,inactive,–,–
COCC(=O)n1nc(-c2ccco2)nc1NCc1cccs1,inactive,–,–
C[C@H](CO)N1C[C@H](C)[C@@H](CN(C)CC2CCCCC2)OCCCC[C@H](C)Oc2ccc(NS(=O)(=O)c3cn(C)cn3)cc2C1=O,inactive,–,–
Cc1nc2ccccc2nc1CSCc1ccco1,inactive,–,–
CCNc1ncc(C(=O)NCCc2nc3c(s2)CCCC3)cn1,inactive,–,–
CC1(C)Cc2ccccc2-c2nc(-c3ccccc3)oc(=O)c21,inactive,–,–
COc1ccc(-n2c(C)c3c(OC)cccc(=O)c3c2C)cc1,–,79.7 µM,–

Structure (SMILES),"activity change, negative = inhibition (at 80 µM (top of the series))",AC50,further results
COc1ccc(N2CC3=C(N2)c2ccccc2CC3)cc1,inactive,–,–
O=c1oc(-c2ccccc2)nc2sc3c(c12)CCC3,inactive,–,–
O=C(O)COCC(=O)NCc1ccco1,inactive,–,–
Cc1ccc(Nc2nc(C(=O)Nc3ccc(Cl)cc3)nc3ccccc23)cc1,–,22.9 µM,–
COC[C@]1(O)CCN(C(=O)CCN(C)S(C)(=O)=O)CC1(C)C,inactive,–,–
O=C(Nc1nccs1)c1cc(-c2ccco2)nc2ccccc12,–,> 160 µM (inactive),–
CC(C(=O)N1CCCC1)N1CCN(c2ccccc2O)CC1 (stereo unspecified),inactive,–,–
COc1c(C(=O)O)csc1Br,–,29.6 µM,–
O=[N+]([O-])c1ccc2cc[nH]c2c1,inactive,–,–
O=C(O)C(c1ccccc1)C(c1ccccc1)c1ccccc1 (stereo unspecified),inactive,–,–
O=C(O)c1cc(-c2ccc(-c3ccc(F)cc3)o2)nc2ccccc12,inactive,–,–
c1cn(CCc2noc(C3CCCC3)n2)c(-c2cc3n(n2)CCCNC3)n1,–,53.7 µM,–
O=C(NC1CC1)c1cc(-c2ccco2)nc2ccccc12,–,> 160 µM (inactive),–
c1ccc(-c2nc(-c3ccco3)n3ccccc23)cc1,–,> 76 µM (inactive),–
O=C1c2ccccc2-c2nc3ccccc3nc21,–,> 160 µM (inactive),–
C[C@H](CO)N1C[C@H](C)[C@@H](CN(C)C(=O)C2CCCCC2)OCCCC[C@H](C)Oc2ccc(NS(=O)(=O)c3ccc(F)cc3)cc2C1=O,inactive,–,–
Cc1ccc(C)n1NC(=O)c1ccccc1O,inactive,–,–
O=S(=O)(Nc1nc2ccc(S(=O)(=O)N3CCCCC3)cc2s1)c1ccccc1,inactive,–,–
CC(=O)c1cccc(OCC(=O)N(C)CC(=O)NCc2ccco2)c1,–,82.2 µM,–
CCc1nc(OCc2ccco2)c2sc3nc4c(cc3c2n1)COC(C)(C)C4,inactive,–,–
COc1ccc(-c2nc(SCC(=O)N3CCN(c4ccccc4OC)CC3)n[nH]2)cc1,inactive,–,–
Cc1ccc(Cc2cnc(N)s2)o1,inactive,–,–
Nc1c2c(nc3ccccc13)CCN(Cc1ccccc1)C2,inactive,–,–
O=C(CN1CCOC1=O)N1CCC2(CCC(=O)N(CCCn3ccnc3)C2)CC1,–,> 160 µM (inactive),–

Structure (SMILES),"activity change, negative = inhibition (at 80 µM (top of the series))",AC50,further results
O=C(Nc1nnc(-c2ccco2)s1)c1ccccc1,inactive,–,–
CC(=O)c1ccc(NC(=O)c2noc3c2CCC3)cc1,–,> 160 µM (inactive),–
Cc1ccc(Nc2nc(C(=O)Nc3ccc(Br)cc3)nc3ccccc23)cc1,inactive,–,–
CS(=O)(=O)N1CCN(c2ccc([N+](=O)[O-])c(SCc3ccco3)c2)CC1,inactive,–,–
O=C(NCc1cccnc1)c1ccccc1-c1nc(-c2ccccc2)no1,–,> 160 µM (inactive),–
O=C(Nc1cccc2nsnc12)c1ccc(-c2cccc(Cl)c2)o1,inactive,–,–
O=C(O)Cc1c[nH]c2cccc(O)c12,inactive,–,–
NC(=O)C1(N2CCCCC2)CCN(c2ncc(NC(=O)c3cccs3)cc2C(=O)O)CC1,–,21.3 µM,–
CCCN1CCCn2nc(CNC(=O)[C@H]3CC[C@@H](N)C3)cc2C1,–,23 µM,–
O=C(NC(Sc1ncccn1)C(=O)c1ccccc1)c1ccccc1 (stereo unspecified),inactive,–,–
Cc1noc(CN(C)C(=O)c2cc(-c3ccco3)nc3c(C)c(Cl)ccc23)n1,inactive,–,–
N#Cc1c(N)oc(-c2ccco2)c1-c1ccco1,–,> 160 µM (inactive),–
Cc1ccsc1[C@@H]1CCN(Cc2ccc(-c3ccn[nH]3)o2)C[C@H]1O,–,> 160 µM (inactive),–
NC(=O)C1(N2CCCCC2)CCN(c2ncc(NC(=O)c3cccc(Cl)c3)cc2C(=O)O)CC1,–,6.54 µM,–
NC(=O)C1(N2CCCCC2)CCN(c2ncc(NC(=O)c3ccc(F)cc3)cc2C(=O)O)CC1,–,44.2 µM,–
CCN(CCNC(=O)C1CCN(S(=O)(=O)c2c(C)noc2C)CC1)c1ccccc1,inactive,–,–
CCCCCn1c(NC(=O)c2ccco2)c(C(=O)OCC)c2nc3ccccc3nc21,inactive,–,–
FC(F)(F)c1cc(Cl)c2nnc(C(F)(F)Cl)n2c1,inactive,–,–
COc1ccc(N2Cc3cccc(C(=O)NC(C)CCc4ccco4)c3C2=O)cc1 (stereo unspecified),inactive,–,–
Cc1cc(C)c2c(N)c(C(=O)Nc3cccc4ccccc34)sc2n1,inactive,–,–
Cc1noc(C)c1S(=O)(=O)Nc1ccc2c(c1)C(=O)N([C@H](C)CO)C[C@H](C)[C@@H](CN(C)CC1CCCCC1)OCCCC[C@H](C)O2,inactive,–,–
Cc1ccc(-c2cc(C(=O)Nc3ccccn3)c3ccccc3n2)o1,inactive,–,–
Cc1ccc(-c2nc(C)sc2CC(=O)NCc2ccco2)cc1,inactive,–,–
O=C(O)c1ccc2nc(-c3ccco3)c(-c3ccco3)nc2c1,–,34.7 µM,–

Structure (SMILES),"activity change, negative = inhibition (at 80 µM (top of the series))",AC50,further results
CC(C)=CCC(C#N)(CC=C(C)C)C(=O)O,inactive,–,–
O=C(Cc1cccs1)Nc1nnc(Cc2ccccc2)s1,inactive,–,–
CCCOc1ccc(CCC(=O)O)cc1,inactive,–,–
N#CCSc1nc2c(c(=O)n1Cc1ccco1)C1(CCCC1)Cc1ccccc1-2,inactive,–,–
Cc1cccc(Nc2nc(C(=O)Nc3cc(F)ccc3F)nc3ccccc23)c1,–,–,"activity change, negative = inhibition (at 38 µM (top of the series)): inactive"
Cc1ccc(S(=O)(=O)Nc2ccc3c(c2)C(=O)N([C@H](C)CO)C[C@H](C)[C@@H](CN(C)CC2CCCCC2)OCCCC[C@H](C)O3)cc1,inactive,–,–
O=C(Cc1ccc(S(=O)(=O)N2CCOCC2)s1)Nc1nc2c(s1)CCCC2,–,> 160 µM (inactive),–
CC1Cc2ccccc2N1CC(=O)NC(=O)NC(C)(C)C (stereo unspecified),inactive,–,–
Cc1cc(C(=O)NCc2ccco2)on1,inactive,–,–
C[n+]1cccc2cccc(O)c21,inactive,–,–
Cc1ccc2c(c1)C(N1CCCC1=O)CC(c1ccco1)N2 (stereo unspecified),inactive,–,–
O=C(Nc1ccc(OCC(=O)N2CCOCC2)cc1)c1cncc(Br)c1,–,42.1 µM,–
O=C1CC2(CCN(C(=O)Nc3ccccc3)CC2)CN1Cc1ccc(Cl)cc1,–,68.7 µM,–
O=C(Cn1cncc1-c1ccc([N+](=O)[O-])cc1)Nc1ccccc1F,inactive,–,–
O=S(=O)(Nc1nccs1)c1ccc(-n2cccc2)cc1,inactive,–,–
O=C(Nc1cccc2ccccc12)NC1CC1,inactive,–,–
COc1cc(N)c(Cc2nccc3cc(OC)c(OC)cc23)cc1OC,inactive,–,–
O=C(O)c1ccccc1SC1CC(=O)N(Cc2ccccc2)C1=O (stereo unspecified),inactive,–,–
N#Cc1sc2nc(-c3ccccc3)cc(-c3ccco3)c2c1N,inactive,–,–
CC(=O)Nc1ccc(Nc2nc(-c3nnc(-c4cccc(C)c4)o3)nc3ccccc23)cc1,inactive,–,–
Cc1oc(CSCc2cc(C(=O)O)c(C)o2)cc1C(=O)O,inactive,–,–
O=C(Nc1ccon1)c1cc2cccnc2n(Cc2ccccc2)c1=O,inactive,–,–
CCOC(=O)/C=C/S(=O)(=O)c1ccc(NC(C)=O)cc1,inactive,–,–
O=C(NCCc1ccccc1)c1cc2cccnc2n(Cc2ccccc2)c1=O,–,> 160 µM (inactive),–
